Tests used:
Experiment in all cases: Reduction of azo substrates over 24 hours at 35° C., microtitration plate (Example 1)
Assay type in all cases: cell-based
Enterococcus faecalis = tested on: Enterococcus faecalis; design: key to RED (substrate reduced or not): RED indicates whether the substrate is reduced (Y) or not (N); RED indicates whether the substrate is reduced (Y) or not (N); key to Decol (substrate decolourized, decrease in absorbance) / Fluo (fluorescence multiplied by 2 relative to substrate-free control) / Co (growth, absorbance at 660 nm): The symbol “+” means good growth/decolourization/significant increase in fluorescence; The symbol “+/−” means difficult growth; The symbol “−” means that there is no growth/decolourization/significant increase in fluorescence; details: E. faecalis, substrate 35 mg/l
Description: (§1) Reduction of the “azo” function of the substrates listed in Table I by the species listed in Table II, each species being represented by a strain, is tested in a microtitration plate.
(§2) The reaction medium consists of: • Trypcase soya broth • Substrate 35 mg/l • 0.5 MacFarland inoculum
(§3) The reduction of the substrate and the growth of the microorganisms are monitored using an Infinite® M200 Tecan microplate reader at 35° C. over 24 hours.
(§4) The growth is monitored by the absorbance at 660 nm and the reduction of the substrates by absorbance and fluorescence at the specific wavelengths indicated in Table III.
(§5) The substrate is considered as reduced by the microorganisms when the substrate is decolourized (monitored by the decrease in absorbance) (Decol) and/or when the fluorescence of the substrate is multiplied by 2 relative to the base fluorescence of a substrate-free control (Fluo). The growth is indicated by Co. The symbol “+” means good growth/decolourization/significant increase in fluorescence. The symbol “+/−” means difficult growth. The symbol “−” means that there is no growth/decolourization/significant increase in fluorescence. RED indicates whether the substrate is reduced (Y) or not (N).

Acinetobacter baumanii = tested on: Acinetobacter baumanii; design: key to RED (substrate reduced or not): RED indicates whether the substrate is reduced (Y) or not (N); RED indicates whether the substrate is reduced (Y) or not (N); key to Decol (substrate decolourized, decrease in absorbance) / Fluo (fluorescence multiplied by 2 relative to substrate-free control) / Co (growth, absorbance at 660 nm): The symbol “+” means good growth/decolourization/significant increase in fluorescence; The symbol “+/−” means difficult growth; The symbol “−” means that there is no growth/decolourization/significant increase in fluorescence; details: A. baumannii, substrate 35 mg/l
Description: as §1, §2, §3, §4, §5

Pseudomonas aeruginosa = tested on: Pseudomonas aeruginosa; design: key to RED (substrate reduced or not): RED indicates whether the substrate is reduced (Y) or not (N); RED indicates whether the substrate is reduced (Y) or not (N); key to Co (growth, absorbance at 660 nm) / Decol (substrate decolourized, decrease in absorbance) / Fluo (fluorescence multiplied by 2 relative to substrate-free control): The symbol “+” means good growth/decolourization/significant increase in fluorescence; The symbol “+/−” means difficult growth; The symbol “−” means that there is no growth/decolourization/significant increase in fluorescence; details: P. aeruginosa, substrate 35 mg/l
Description: as §1, §2, §3, §4, §5

Geotrichum candidum = tested on: Geotrichum candidum; design: key to RED (substrate reduced or not): RED indicates whether the substrate is reduced (Y) or not (N); RED indicates whether the substrate is reduced (Y) or not (N); key to Co (growth, absorbance at 660 nm) / Decol (substrate decolourized, decrease in absorbance) / Fluo (fluorescence multiplied by 2 relative to substrate-free control): The symbol “+” means good growth/decolourization/significant increase in fluorescence; The symbol “+/−” means difficult growth; The symbol “−” means that there is no growth/decolourization/significant increase in fluorescence; details: G. candidum, substrate 35 mg/l
Description: as §1, §2, §3, §4, §5

Kocuria rosea = tested on: Kocuria rosea; design: key to RED (substrate reduced or not): RED indicates whether the substrate is reduced (Y) or not (N); RED indicates whether the substrate is reduced (Y) or not (N); key to Co (growth, absorbance at 660 nm) / Decol (substrate decolourized, decrease in absorbance) / Fluo (fluorescence multiplied by 2 relative to substrate-free control): The symbol “+” means good growth/decolourization/significant increase in fluorescence; The symbol “+/−” means difficult growth; The symbol “−” means that there is no growth/decolourization/significant increase in fluorescence; details: K. rosea, substrate 35 mg/l
Description: as §1, §2, §3, §4, §5

Staphylococcus aureus = tested on: Staphylococcus aureus; design: key to RED (substrate reduced or not): RED indicates whether the substrate is reduced (Y) or not (N); RED indicates whether the substrate is reduced (Y) or not (N); key to Co (growth, absorbance at 660 nm) / Decol (substrate decolourized, decrease in absorbance) / Fluo (fluorescence multiplied by 2 relative to substrate-free control): The symbol “+” means good growth/decolourization/significant increase in fluorescence; The symbol “+/−” means difficult growth; The symbol “−” means that there is no growth/decolourization/significant increase in fluorescence; details: S. aureus, substrate 35 mg/l
Description: as §1, §2, §3, §4, §5

[1] = tested on: Staphylococcus epidermidis; design: key to RED (substrate reduced or not): RED indicates whether the substrate is reduced (Y) or not (N); RED indicates whether the substrate is reduced (Y) or not (N); key to Co (growth, absorbance at 660 nm) / Decol (substrate decolourized, decrease in absorbance) / Fluo (fluorescence multiplied by 2 relative to substrate-free control): The symbol “+” means good growth/decolourization/significant increase in fluorescence; The symbol “+/−” means difficult growth; The symbol “−” means that there is no growth/decolourization/significant increase in fluorescence; details: S. epidermidis, substrate 35 mg/l
Description: as §1, §2, §3, §4, §5

Cronobacter muytjensii = tested on: Cronobacter muytjensii; design: key to RED (substrate reduced or not): RED indicates whether the substrate is reduced (Y) or not (N); RED indicates whether the substrate is reduced (Y) or not (N); key to Co (growth, absorbance at 660 nm) / Decol (substrate decolourized, decrease in absorbance) / Fluo (fluorescence multiplied by 2 relative to substrate-free control): The symbol “+” means good growth/decolourization/significant increase in fluorescence; The symbol “+/−” means difficult growth; The symbol “−” means that there is no growth/decolourization/significant increase in fluorescence; details: E. muytjensii, substrate 35 mg/l
Description: as §1, §2, §3, §4, §5

Escherichia coli = tested on: Escherichia coli; design: key to RED (substrate reduced or not): RED indicates whether the substrate is reduced (Y) or not (N); RED indicates whether the substrate is reduced (Y) or not (N); key to Co (growth, absorbance at 660 nm) / Decol (substrate decolourized, decrease in absorbance) / Fluo (fluorescence multiplied by 2 relative to substrate-free control): The symbol “+” means good growth/decolourization/significant increase in fluorescence; The symbol “+/−” means difficult growth; The symbol “−” means that there is no growth/decolourization/significant increase in fluorescence; details: E. coli, substrate 35 mg/l
Description: as §1, §2, §3, §4, §5

Candida albicans = tested on: Candida albicans; design: key to RED (substrate reduced or not): RED indicates whether the substrate is reduced (Y) or not (N); RED indicates whether the substrate is reduced (Y) or not (N); key to Co (growth, absorbance at 660 nm) / Decol (substrate decolourized, decrease in absorbance) / Fluo (fluorescence multiplied by 2 relative to substrate-free control): The symbol “+” means good growth/decolourization/significant increase in fluorescence; The symbol “+/−” means difficult growth; The symbol “−” means that there is no growth/decolourization/significant increase in fluorescence; details: substrate 35 mg/l
Description: as §1, §2, §3, §4, §5

| Structure (SMILES) | Co (growth, absorbance at 660 nm) (Enterococcus faecalis) | Decol (substrate decolourized, decrease in absorbance) (Enterococcus faecalis) | Fluo (fluorescence multiplied by 2 relative to substrate-free control) (Enterococcus faecalis) | RED (substrate reduced or not) (Enterococcus faecalis) | Co (growth, absorbance at 660 nm) (Acinetobacter baumanii) | Decol (substrate decolourized, decrease in absorbance) (Acinetobacter baumanii) | Fluo (fluorescence multiplied by 2 relative to substrate-free control) (Acinetobacter baumanii) | RED (substrate reduced or not) (Acinetobacter baumanii) | Co (growth, absorbance at 660 nm) (Pseudomonas aeruginosa) | Decol (substrate decolourized, decrease in absorbance) (Pseudomonas aeruginosa) | Fluo (fluorescence multiplied by 2 relative to substrate-free control) (Pseudomonas aeruginosa) | RED (substrate reduced or not) (Pseudomonas aeruginosa) | Co (growth, absorbance at 660 nm) (Geotrichum candidum) | Decol (substrate decolourized, decrease in absorbance) (Geotrichum candidum) | Fluo (fluorescence multiplied by 2 relative to substrate-free control) (Geotrichum candidum) | RED (substrate reduced or not) (Geotrichum candidum) | Co (growth, absorbance at 660 nm) (Kocuria rosea) | Decol (substrate decolourized, decrease in absorbance) (Kocuria rosea) | Fluo (fluorescence multiplied by 2 relative to substrate-free control) (Kocuria rosea) | Co (growth, absorbance at 660 nm) (Staphylococcus aureus) | other results |
| --- | --- | --- | --- | --- | --- | --- | --- | --- | --- | --- | --- | --- | --- | --- | --- | --- | --- | --- | --- | --- | --- |
| Oc1ccc2ccccc2c1/N=N/c1ccc(/C=C/c2ccnc3ccccc23)cc1 [BF38, 4″-Quinoline-4′-styryl-azo-2-Hydroxynaphthol] | + | + | − | Y | + | − | − | N | + | + | − | Y | + | − | − | N | − | − | − | + | Decol (substrate decolourized, decrease in absorbance) (Staphylococcus aureus): +; Fluo (fluorescence multiplied by 2 relative to substrate-free control) (Staphylococcus aureus): −; RED (substrate reduced or not) (Staphylococcus aureus): Y; Co (growth, absorbance at 660 nm) [1]: +; Decol (substrate decolourized, decrease in absorbance) [1]: +; Fluo (fluorescence multiplied by 2 relative to substrate-free control) [1]: −; RED (substrate reduced or not) [1]: Y; Co (growth, absorbance at 660 nm) (Cronobacter muytjensii): +; Decol (substrate decolourized, decrease in absorbance) (Cronobacter muytjensii): +; Fluo (fluorescence multiplied by 2 relative to substrate-free control) (Cronobacter muytjensii): −; RED (substrate reduced or not) (Cronobacter muytjensii): Y; Co (growth, absorbance at 660 nm) (Escherichia coli): +; Decol (substrate decolourized, decrease in absorbance) (Escherichia coli): +; Fluo (fluorescence multiplied by 2 relative to substrate-free control) (Escherichia coli): −; RED (substrate reduced or not) (Escherichia coli): Y; Co (growth, absorbance at 660 nm) (Candida albicans): +; Decol (substrate decolourized, decrease in absorbance) (Candida albicans): −; Fluo (fluorescence multiplied by 2 relative to substrate-free control) (Candida albicans): −; RED (substrate reduced or not) (Candida albicans): N |
| O=S(=O)([O-])c1ccc2c(N=Nc3cccc4ccccc34)c(O)c(S(=O)(=O)[O-])cc2c1.[Na+].[Na+] [Bordeaux B] | + | + | + | Y | + | − | − | N | + | − | − | N | +/− | − | − | N | − | − | − | + | Decol (substrate decolourized, decrease in absorbance) (Staphylococcus aureus): −; Fluo (fluorescence multiplied by 2 relative to substrate-free control) (Staphylococcus aureus): −; RED (substrate reduced or not) (Staphylococcus aureus): N; Co (growth, absorbance at 660 nm) [1]: +; Decol (substrate decolourized, decrease in absorbance) [1]: −; Fluo (fluorescence multiplied by 2 relative to substrate-free control) [1]: −; RED (substrate reduced or not) [1]: N; Co (growth, absorbance at 660 nm) (Cronobacter muytjensii): +; Decol (substrate decolourized, decrease in absorbance) (Cronobacter muytjensii): −; Fluo (fluorescence multiplied by 2 relative to substrate-free control) (Cronobacter muytjensii): −; RED (substrate reduced or not) (Cronobacter muytjensii): N; Co (growth, absorbance at 660 nm) (Escherichia coli): +; Decol (substrate decolourized, decrease in absorbance) (Escherichia coli): −; Fluo (fluorescence multiplied by 2 relative to substrate-free control) (Escherichia coli): −; RED (substrate reduced or not) (Escherichia coli): N; Co (growth, absorbance at 660 nm) (Candida albicans): +; Decol (substrate decolourized, decrease in absorbance) (Candida albicans): −; Fluo (fluorescence multiplied by 2 relative to substrate-free control) (Candida albicans): −; RED (substrate reduced or not) (Candida albicans): N |

Source: US20150125889A1, “IN VITRO DETECTION OF MICROORGANISMS WITH AZOREDUCTASE ACTIVITY” (BIOMÉRIEUX, priority 2012, published 2015)
